Values joined by “and” are separate entries in the source; they are usually repeats but may differ in a detail not shown here. Equal entries are not always repeated. Active and inactive are the calls of the source.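 How the source made its calls: active means max delta Tm melting temperature shift above 1 degree C at some tested dose; inactive means the rest.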
What follows are compounds tested against Kelch-like ECH-associated protein 1 (Homo sapiens) (UniProt Q14145) (assay: thermal stabilisation of Keap1 Kelch domain – biophysical, thermal shift, RT-PCR instrument, dry powder, orthogonal assay for Keap1-Nrf2 interaction inhibitor project, dose response (AID 651829)). Settings: Recombinant Keap1 Kelch domain, Sypro Orange, at 0.08 µM, top dose 10 µM, stronger effect = higher value.
Chain of Kelch-like ECH-associated protein 1 (Homo sapiens) (Q14145 whole entry, looked up, the tested form may be a part): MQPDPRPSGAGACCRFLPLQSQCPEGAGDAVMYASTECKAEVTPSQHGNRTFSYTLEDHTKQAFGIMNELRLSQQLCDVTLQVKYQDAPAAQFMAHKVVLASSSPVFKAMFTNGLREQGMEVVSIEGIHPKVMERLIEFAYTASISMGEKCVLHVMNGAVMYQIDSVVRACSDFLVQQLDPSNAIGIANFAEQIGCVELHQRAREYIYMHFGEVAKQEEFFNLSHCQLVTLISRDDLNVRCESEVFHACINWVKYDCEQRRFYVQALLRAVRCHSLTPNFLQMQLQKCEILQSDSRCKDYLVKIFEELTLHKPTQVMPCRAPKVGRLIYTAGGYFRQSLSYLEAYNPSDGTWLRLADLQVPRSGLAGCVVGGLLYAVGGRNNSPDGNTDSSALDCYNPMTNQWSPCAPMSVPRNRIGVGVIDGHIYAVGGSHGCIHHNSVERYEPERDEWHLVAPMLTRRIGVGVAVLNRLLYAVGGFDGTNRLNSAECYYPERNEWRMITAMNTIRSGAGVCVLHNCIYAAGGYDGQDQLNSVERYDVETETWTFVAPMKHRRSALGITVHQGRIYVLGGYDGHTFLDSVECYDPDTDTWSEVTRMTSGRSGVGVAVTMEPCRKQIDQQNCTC
For `O=C1c2ccccc2C(=O)N1CC1c2ccccc2CCN1C(=O)Cc1ccccc1` (stereo unspecified), the max delta Tm was 0.259 °C (inactive).

Same assay, conditions: Recombinant Keap1 Kelch domain, Sypro Orange, at 0.16 µM, top dose 38 µM, stronger effect = higher value
With `O=C(O)c1ccccc1C(=O)NC[C@@H]1c2ccccc2CCN1C(=O)[C@@H]1CCCC[C@@H]1C(=O)O` the max delta Tm was -0.037 °C (inactive).
With `O=C(O)[C@H]1CCCC[C@H]1C(=O)N1CCc2ccccc2C1` (racemic) the max delta Tm was -0.041 °C (inactive).
With `COC(=O)C1CCCCC1C(=O)N1CCc2ccccc2C1CN1C(=O)c2ccccc2C1=O` (stereo unspecified) the max delta Tm was 0.175 °C (inactive).
For `O=C(O)[C@H]1CCCC[C@H]1C(=O)N1CCc2ccccc2[C@H]1CNc1nc(Cl)nc2ccccc12`, the max delta Tm was 0.129 °C (inactive).
In the case of `O=C(O)C1CCCCC1C(=O)N1CCc2ccccc2[C@H]1C(=O)NCCc1ccccc1` (stereo partly specified), the max delta Tm is reported as 0.168 °C (inactive).
For `O=C1c2ccccc2C(=O)N1C[C@@H]1c2ccccc2CCN1C(=O)OCc1ccccc1`, the max delta Tm was -0.028 °C (inactive).
`Cc1cc(C)c(S(=O)(=O)Nc2nc(NCCO)nc3ccccc23)c(C)c1` was tested, and the max delta Tm was 0.147 °C (inactive).
With `O=C(NCCCN1CCOCC1)c1ccccc1C(=O)NC[C@@H]1c2ccccc2CCN1C(=O)C1CCCCC1C(=O)O` (stereo partly specified) the max delta Tm was 0.217 °C (inactive).
For `O=C(NC[C@@H]1c2ccccc2CCN1C(=O)[C@@H]1CCCC[C@@H]1C(=O)O)c1ccccc1`, the max delta Tm was 0.132 °C (inactive).
`Cc1cc(C)c(S(=O)(=O)Nc2nc(N(C)C)nc3ccccc23)c(C)c1` was tested, and the max delta Tm was 0.107 °C (inactive).
For `O=C(O)[C@H]1CCCC[C@H]1C(=O)N1CCC2=C(CCCC2)C1CN1C(=O)c2ccccc2C1=O` (stereo partly specified), the max delta Tm was 0.172 °C (inactive).
In the case of `O=C(O)[C@H]1CCCC[C@H]1C(=O)NC(CN1C(=O)c2ccccc2C1=O)c1ccccc1` (stereo partly specified), the max delta Tm is reported as 0.154 °C (inactive).

Same assay, conditions: Recombinant Keap1 Kelch domain, Sypro Orange, at 0.3 µM, top dose 38 µM, stronger effect = higher value
For `COC(=O)CNc1nc(NS(=O)(=O)c2c(C)cc(C)cc2C)c2ccccc2n1`, the max delta Tm was 0.26 °C (inactive).
For `Cc1ccc(S(=O)(=O)NNc2nc(C(C(=O)OC(C)C)C(=O)C(F)(F)F)nc3ccccc23)cc1` (stereo unspecified), the max delta Tm was 0.2 °C (inactive).
For `COc1ccccc1CCNC(=O)[C@@H]1c2ccccc2CCN1C(=O)C1CCCCC1C(=O)O` (stereo partly specified), the max delta Tm was 0.192 °C (inactive).
For `Cc1ccc(S(=O)(=O)NNc2nc(NCC(N)=O)nc3ccccc23)cc1`, the max delta Tm was 0.22 °C (inactive).
`CCOC(=O)C(C(=O)OCC)c1cc(CNS(=O)(=O)c2ccc(C)cc2C)c2ccccc2n1` was tested, and the max delta Tm was 0.118 °C (inactive).
For `O=S(=O)(Nc1nc(NCC2CCCCC2)nc2ccccc12)c1ccccc1`, the max delta Tm was 0.21 °C (inactive).
For `O=C(O)C1CCCCC1C(=O)NCC1c2ccccc2CCN1C(=O)Cc1ccccc1` (stereo unspecified), the max delta Tm was 0.052 °C (inactive).
`Cc1ccc(S(=O)(=O)NC(=O)[C@@H]2c3ccccc3CCN2C(=O)[C@@H]2CCCC[C@@H]2C(=O)O)cc1` was tested, and the max delta Tm was 0.155 °C (inactive).

Same assay, conditions: Recombinant Keap1 Kelch domain, Sypro Orange, at 0.6 µM, top dose 38 µM, stronger effect = higher value
In the case of `CC(C)CNc1nc(NS(=O)(=O)c2ccccc2)c2ccccc2n1`, the max delta Tm is reported as 0.095 °C (inactive).
For `CCOC(=O)Cc1nc(NS(=O)(=O)c2c(C)cc(C)cc2C)c2ccccc2n1`, the max delta Tm was 0.029 °C (inactive).
`O=C(NC[C@@H]1c2ccccc2CCN1C(=O)[C@@H]1CCCC[C@@H]1C(=O)O)OCC1c2ccccc2-c2ccccc21` was tested, and the max delta Tm was 0.138 °C (inactive).
`COC(=O)[C@@H]1CCCC[C@@H]1C(=O)N1CCc2ccccc2[C@@H]1CN1C(=O)c2ccccc2C1=O` was tested, and the max delta Tm was -0.035 °C (inactive).
`O=C(O)[C@H]1CCCC[C@H]1C(=O)N1CCc2ccccc2C1CCN1C(=O)c2ccccc2C1=O` (stereo partly specified) was tested, and the max delta Tm was 0.157 °C (inactive) and 0.069 °C (inactive).

Same assay, conditions: Recombinant Keap1 Kelch domain, Sypro Orange, at 1.2 µM, top dose 38 µM, stronger effect = higher value
For `CCOC(=O)C(C(=O)OCC)c1cc(CN2C(=O)c3ccccc3C2=O)c2ccccc2n1`, the max delta Tm was 0.127 °C (inactive).
For `COC(=O)[C@H]1CCCC[C@H]1C(=O)N1CCc2ccccc2[C@H]1CN1C(=O)c2ccccc2C1=O`, the max delta Tm was -0.022 °C (inactive).
With `Cc1cc(C)c(S(=O)(=O)Nc2ncnc3ccccc23)c(C)c1` the max delta Tm was 0.086 °C (inactive).
For `O=C1c2ccccc2C(=O)N1C[C@H]1NCCc2ccccc21`, the max delta Tm was 0.003 °C (inactive).
For `O=C(O)C1CCCCC1C(=O)N1CCc2ccccc2C1c1ccccc1` (stereo unspecified), the max delta Tm was -0.003 °C (inactive).
In the case of `COC(=O)[C@@H]1CCCC[C@@H]1C(=O)N1CCc2ccccc2[C@H]1CN1C(=O)c2ccccc2C1=O`, the max delta Tm is reported as -0.023 °C (inactive).
With `Cc1ccc(S(=O)(=O)NNc2nc(N3CC(O)CC3C(=O)O)nc3ccccc23)cc1` (stereo unspecified) the max delta Tm was 0.172 °C (inactive).

Same assay, conditions: Recombinant Keap1 Kelch domain, Sypro Orange, at 2.6 µM, top dose 38 µM, stronger effect = higher value
For `O=C(O)C1CCCCC1C(=O)N1CCc2ccccc2[C@H]1C(=O)NC12CC3CC(CC(C3)C1)C2` (stereo partly specified), the max delta Tm was -0.05 °C (inactive).
`Cc1cc(C)c(S(=O)(=O)Nc2nc(C(C(=O)OC(C)C)C(=O)C(F)(F)F)nc3ccccc23)c(C)c1` (stereo unspecified) was tested, and the max delta Tm was 0.113 °C (inactive).
With `CCOC(=O)C(C(=O)OCC)c1nc(NS(=O)(=O)c2c(C)cc(C)cc2C)c2ccccc2n1` the max delta Tm was 0.045 °C (inactive).
`O=C(O)c1ccccc1C(=O)N1CCc2ccccc2C1CN1C(=O)c2ccccc2C1=O` (stereo unspecified) was tested, and the max delta Tm was 0.017 °C (inactive).
With `O=C(O)C1CCCCC1C(=O)Nc1ccccc1CN1C(=O)c2ccccc2C1=O` (stereo unspecified) the max delta Tm was 0.138 °C (inactive).
With `O=C(Oc1cc(CN2C(=O)c3ccccc3C2=O)c2ccccc2[n+]1[O-])c1cccc(Cl)c1` the max delta Tm was 0.062 °C (inactive).
In the case of `COc1ccc(CCN=C2C=C(NS(=O)(=O)c3c(C)cc(C)cc3C)c3ccccc3C2=O)cc1`, the max delta Tm is reported as 0.288 °C (inactive).

Same assay, conditions: Recombinant Keap1 Kelch domain, Sypro Orange, at 5 µM, top dose 38 µM, stronger effect = higher value
For `O=C1c2ccccc2C(=O)N1CC1=NCCc2ccccc21`, the max delta Tm was -0.008 °C (inactive).
With `CC(=O)Nc1cc(NS(=O)(=O)c2c(C)cc(C)cc2C)c2ccccc2c1O` the max delta Tm was 0.953 °C (inactive).

Same assay, conditions: Recombinant Keap1 Kelch domain, Sypro Orange, at 10 µM, top dose 38 µM, stronger effect = higher value
With `Cc1cc(C)c(S(=O)(=O)Nc2cc(C(C(=O)OCc3ccccc3)C(=O)OCc3ccccc3)c(O)c3ccccc23)c(C)c1` the max delta Tm was 0.088 °C (inactive).
With `C[C@H](NC(=O)C1CCCC[C@H]1C(=O)O)c1ccccc1` (mixture of isomers) the max delta Tm was -0.003 °C (inactive).
With `O=C(O)CCCC(=O)N1CCc2ccccc2C1CN1C(=O)c2ccccc2C1=O` (stereo unspecified) the max delta Tm was 0.13 °C (inactive).
In the case of `O=C(O)CC(=O)N1CCc2ccccc2C1CN1C(=O)c2ccccc2C1=O` (stereo unspecified), the max delta Tm is reported as -0.045 °C (inactive).

Same assay, conditions: Recombinant Keap1 Kelch domain, Sypro Orange, at 19.5 µM, top dose 19.5 µM, stronger effect = higher value
Work on `Cc1cc(C)c(S(=O)(=O)Nc2cc(C(C(=O)OC(C)C)C(=O)C(F)(F)F)c(O)c3ccccc23)c(C)c1` (stereo unspecified) yielded a max delta Tm of 11.4 degrees C.

Same assay, conditions: Recombinant Keap1 Kelch domain, Sypro Orange, at 19.5 µM, top dose 38 µM, stronger effect = higher value
With `COc1ccccc1CCNC(=O)[C@@H]1c2ccccc2CCN1C(=O)C1CCCCC1C(=O)O` (stereo partly specified) the max delta Tm was 0.102 °C (inactive).
With `Cc1ccc(S(=O)(=O)NC2=CC(=N[C@@H](C)C(=O)OC(C)(C)C)C(=O)c3ccccc32)c(C)c1` the max delta Tm was 0.3 °C (inactive).
In the case of `Cc1ccc(S(=O)(=O)NC[C@@H]2c3ccccc3CCN2C(=O)[C@@H]2CCCC[C@@H]2C(=O)O)c(C)c1`, the max delta Tm is reported as 0.174 °C (inactive).

Same assay, conditions: Recombinant Keap1 Kelch domain, Sypro Orange, at 38 µM, top dose 38 µM, stronger effect = higher value
`O=C(O)Cc1ccccc1C(=O)N1CCc2ccccc2[C@H]1CN1C(=O)c2ccccc2C1=O` showed a max delta Tm of 4.85 degrees C.
In the case of `O=C(O)/C=C\C(=O)N1CCc2ccccc2C1CN1C(=O)c2ccccc2C1=O` (stereo unspecified), the max delta Tm is reported as 1.14 degrees C.
`CC(C)OC(=O)C(C(=O)C(F)(F)F)c1cc(NS(=O)(=O)c2ccccc2)c2ccccc2c1O` (stereo unspecified) showed a max delta Tm of 4.43 degrees C.
`O=C(NC[C@@H]1c2ccccc2CCN1C(=O)[C@@H]1CCCC[C@@H]1C(=O)O)c1ccc(CCl)cc1` was tested, and the max delta Tm was 0.364 °C (inactive).
In the case of `O=C(O)[C@H]1CCCC[C@H]1C(=O)N1CCc2ccccc2[C@H]1CNS(=O)(=O)c1ccccc1`, the max delta Tm is reported as 0.368 °C (inactive).
Work on `O=C(O)C1CCCCC1C(=O)N1CCc2ccccc2C1CN1C(=O)c2ccccc2S1(=O)=O` (stereo unspecified) yielded a max delta Tm of 3.85 degrees C.
`NC(=O)[C@H]1CCCC[C@H]1C(=O)N1CCc2ccccc2[C@H]1CN1C(=O)c2ccccc2C1=O` showed a max delta Tm of 1.34 degrees C.
In the case of `NC(=O)c1ccccc1C(=O)NC[C@@H]1c2ccccc2CCN1C(=O)[C@@H]1CCCC[C@@H]1C(=O)O`, the max delta Tm is reported as 0.771 °C (inactive).
In the case of `O=C(NCCc1ccccc1)c1ccccc1C(=O)NC[C@@H]1c2ccccc2CCN1C(=O)C1CCCCC1C(=O)O` (stereo partly specified), the max delta Tm is reported as 2.14 degrees C.
With `O=C(O)[C@@H]1CCCN1C(=O)N1CCc2ccccc2[C@H]1CN1C(=O)c2ccccc2C1=O` the max delta Tm was 2.21 degrees C.
Work on `O=C(O)[C@H]1CCCC[C@H]1C(=O)N1CCC2=C(CCCC2)C1CN1C(=O)c2ccccc2C1=O` (stereo partly specified) yielded a max delta Tm of 2.69 degrees C.
Work on `O=C(NCCO)c1ccccc1C(=O)NC[C@@H]1c2ccccc2CCN1C(=O)C1CCCCC1C(=O)O` (stereo partly specified) yielded a max delta Tm of 1.77 degrees C.
In the case of `O=C(O)[C@H]1C2C=CC(C2)[C@H]1C(=O)N1CCc2ccccc2C1CN1C(=O)c2ccccc2C1=O` (stereo partly specified), the max delta Tm is reported as 1.86 degrees C.
In the case of `O=C(O)CCC(=O)N1CCc2ccccc2C1CN1C(=O)c2ccccc2C1=O` (stereo unspecified), the max delta Tm is reported as 0.462 °C (inactive).
`Cc1ccc(S(=O)(=O)Nc2cc(C(C(=O)OC(C)C)C(=O)C(F)(F)F)c(O)c3ccccc23)cc1` (stereo unspecified) showed a max delta Tm of 6.81 degrees C.
Compound `O=C(O)C1CCCCC1C(=O)N1CCc2ccccc2C1CN1C(=O)[C@H]2CCCC[C@H]2C1=O` (stereo partly specified) has a max delta Tm of 2.32 degrees C.
Work on `O=C(NC[C@@H]1c2ccccc2CCN1C(=O)[C@@H]1CCCC[C@@H]1C(=O)O)c1ccccc1CO` yielded a max delta Tm of 1.92 degrees C.
For `O=C1c2ccccc2C(=O)N1C[C@@H]1c2ccccc2CCN1C(=O)C1CCCCC1`, the max delta Tm was 0.208 °C (inactive).
`O=C(O)C1CCCCC1C(=O)N1CCc2ccccc2C1CN1Cc2ccccc2C1=O` (stereo unspecified) was tested, and the max delta Tm was 5.56 degrees C.
With `Cc1ccc(S(=O)(=O)Nc2cc(C(C(=O)OC(C)C)C(=O)C(F)(F)F)c(O)c3ccccc23)c(C)c1` (stereo unspecified) the max delta Tm was 9.26 degrees C.
In the case of `O=C(Cc1ccccc1)NC[C@@H]1c2ccccc2CCN1C(=O)[C@@H]1CCCC[C@@H]1C(=O)O`, the max delta Tm is reported as 1.66 degrees C.
With `Cc1ccc(S(=O)(=O)NC(=O)[C@@H]2c3ccccc3CCN2C(=O)[C@@H]2CCCC[C@@H]2C(=O)O)cc1` the max delta Tm was 2.68 degrees C.
`C[C@@H](NC(=O)C1CCCC[C@H]1C(=O)O)c1ccccc1` (mixture of isomers) was tested, and the max delta Tm was 0.005 °C (inactive).
In the case of `O=C(NC[C@@H]1c2ccccc2CCN1C(=O)[C@@H]1CCCC[C@@H]1C(=O)O)c1ccc(CN2CCOCC2)cc1`, the max delta Tm is reported as 0.592 °C (inactive).
`COC(=O)C(C(=O)OC)c1cc(NS(=O)(=O)c2c(C)cc(C)cc2C)c2ccccc2c1O` was tested, and the max delta Tm was 3.82 degrees C.
Compound `O=C(O)C1CCCCC1C(=O)N1CCc2ccccc2C1CN1C(=O)Cc2ccccc2C1=O` (stereo unspecified) has a max delta Tm of 1.59 degrees C.

— PubChem BioAssay AID651829 (Broad Institute, 2012)
